From patent US12440496B2, “Natriuretic peptide receptor a agonists useful for the treatment of cardiometabolic diseases, kidney disease and diabetes” (Merck Sharp & Dohme LLC, priority 2019, dated 2025)
Structures can show the parent of a compound that is named as a salt.

Target: T1, hNPRA (Homo sapiens, UniProt P16066)
T1 construct: expressed in transfected cells
T1 sequence (P16066 33-1061): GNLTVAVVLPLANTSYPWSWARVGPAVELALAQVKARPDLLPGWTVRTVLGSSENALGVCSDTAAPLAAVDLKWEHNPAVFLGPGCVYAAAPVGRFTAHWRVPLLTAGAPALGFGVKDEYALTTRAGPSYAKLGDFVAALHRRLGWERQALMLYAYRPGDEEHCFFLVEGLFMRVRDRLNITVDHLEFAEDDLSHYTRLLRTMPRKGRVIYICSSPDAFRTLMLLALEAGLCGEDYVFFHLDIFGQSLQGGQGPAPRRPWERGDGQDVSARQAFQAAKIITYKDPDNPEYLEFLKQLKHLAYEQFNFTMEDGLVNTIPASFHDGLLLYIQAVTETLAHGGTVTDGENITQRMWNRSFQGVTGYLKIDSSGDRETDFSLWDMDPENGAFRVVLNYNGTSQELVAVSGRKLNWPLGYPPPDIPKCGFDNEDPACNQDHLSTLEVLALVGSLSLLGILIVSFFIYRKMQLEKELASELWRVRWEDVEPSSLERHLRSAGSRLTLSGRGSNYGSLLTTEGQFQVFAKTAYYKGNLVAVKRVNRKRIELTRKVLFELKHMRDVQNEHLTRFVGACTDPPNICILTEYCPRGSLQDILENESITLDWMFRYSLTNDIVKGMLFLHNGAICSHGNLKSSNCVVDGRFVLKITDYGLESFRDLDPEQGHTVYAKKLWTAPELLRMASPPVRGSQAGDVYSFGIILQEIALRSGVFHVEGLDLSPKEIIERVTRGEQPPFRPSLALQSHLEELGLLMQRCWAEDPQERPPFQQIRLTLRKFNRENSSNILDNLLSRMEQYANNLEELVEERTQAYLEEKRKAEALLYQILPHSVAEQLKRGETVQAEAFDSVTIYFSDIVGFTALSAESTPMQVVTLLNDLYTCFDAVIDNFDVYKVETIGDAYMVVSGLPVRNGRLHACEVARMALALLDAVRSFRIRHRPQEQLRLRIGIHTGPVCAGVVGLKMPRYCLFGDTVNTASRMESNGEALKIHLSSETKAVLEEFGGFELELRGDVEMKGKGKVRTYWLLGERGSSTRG
Assay: NPRA Functional Cell Assay (cGMP HTRF, NPRA HEK JumpIn stable cells)
Format: cell-based
Details: cGMP production, 1 hour at 37° C., 10-point dose response
Excerpt: NPRA Functional Cell Assay
Assay Buffer components HEPES and Opti-MEM® I Reduced-Serum with Glutamine (no phenol red) were from Gibco/Invitrogen (Thermo Fisher Scientific, Waltham, MA USA). 3-Isobutyl-1-methylxanthine (IBMX) and 4-(3-Butoxy-4-methoxybenzyl) imidazolidin-2-one (RO20) were obtained from Sigma-Aldrich (St. Louis, MO, USA). DPBS (Dulbecco's phosphate-buffered saline) without Ca2+ and Mg2+ was purchased from GE Healthcare Bio-Sciences (Pittsburgh, PA, USA). 384 well white Optiplates were from Perkin Elmer (Atlantic Highlands, NJ, USA). Human ANP (Atrial Natriuretic Peptide) (1-28) was purchased from Sigma-Aldrich (Catalog #A1663) and rat ANP (1-28) from Bachem (Torrance, CA, USA) (Catalog #H2100). Human-BNP (Human-Brain Natriuretic Peptide) (1-32 AA) was purchased from American Peptide Company (Sunnyvale, CA, USA) (product No. 14-1-90). cGMP kits were purchased from Cisbio. The assay ready frozen (ARF) Human/rat/dog NPRA HEK JumpIn Stable frozen cells (low passage number 5-11) were prepared in-house.
Test compounds were titrated in DMSO in a 10-point dose response in a separate step followed by a 100-fold dilution into the reaction. Positive response for each assay was determined using 10 nM rat-ANP peptide (rat cells) or 50 nM h-ANP peptide (human and dog cells).
Cells were thawed, washed with DPBS and resuspended in assay buffer (Opti-MEM+Glutamine, phenol red free media, 10 mM HEPES, 100 uM IBMX and 100 uM RO20) that was warmed to 37° C. Cells were then transferred to microplates via a Microplate Combi dispenser at a density of 1500, 400 and 1200 cells/well for human, rat and dog cells respectively, followed by acoustic transfer (Echo) of compound.
(§1) Compounds and cells were incubated at 37° C. with 5% CO2 for 1 hour, after which the cells were lysed and cGMP was captured using a CisBio cGMP HTRF assay kit. The TRF signal was measured with an Envision plate reader (emission set to 615 and 665 nm) after 1 hour incubation at ambient temperature. The TRF signal was converted to [cGMP] through the use of a cGMP calibration curve on each microplate. EC50's were generated from the resulting dose response curves by use of a 4 parameter logistic algorithm.
Assay Buffer components HEPES and Opti-MEM® I Reduced-Serum with Glutamine (no phenol red) were from Gibco/Invitrogen. 3-Isobutyl-1-methylxanthine (IBMX) and 4-(3-Butoxy-4-methoxybenzyl) imidazolidin-2-one (RO20) were obtained from Sigma. DPBS (Dulbecco's phosphate-buffered saline) without Ca2+ and Mg2+ was purchased from GE Healthcare Bio-Sciences (Pittsburgh, PA, USA). 384 well white Optiplates were from Perkin Elmer (Atlantic Highlands, NJ, USA). Human ANP (1-28) was purchased from Sigma (A1663) and rat ANP (1-28) from Bachem (H2100). Human-BNP (1-32 AA) was purchased from American Peptide Company (Sunnyvale, CA, USA) (product No. 14-1-90). cGMP kits were purchased from Cisbio (Bedford, MA, USA). The assay ready frozen (ARF) Human/rat/dog NPRA HEK JumpIn Stable frozen cells (low passage number 5-11) were prepared in-house.
as §1, with “Envision®” for “Envision”, “reader (Perkin Elmer)” for “reader”
hNPRA EC50 (nM) were determined for the compounds of Example 1 through Example 273 and are reported in the Experimental section of this application.

| Structure (SMILES) | EC50 |
| --- | --- |
| CC(C)(C)[C@H]1CCc2nc3sc(C(=O)N[C@H](CCN4CCC(O)CC4)c4ccc(-c5cnc(=O)[nH]c5)cc4)nc3cc2C1 (racemic) [Example 127, rac-(7S)-7-tert-butyl-N-[rac-(1R)-3-(4-hydroxypiperidin-1-ium-1-yl)-1-[4-(2-oxo-1H-pyrimidin-5-yl)phenyl]propyl]-5,6,7,8-tetrahydrothiazolo [5,4-b]quinoline-2-carboxamide; 2,2,2-trifluoroacetate] | 452 nM |
| CC(C)[C@]1(F)CCc2nc3sc(C(=O)N[C@H](CCN4CCC(O)CC4)c4ccc(N5CC(=O)NC5=O)nc4)nc3cc2C1 [Example 219, (S)-N-((R)-1-(6-(2,4-dioxoimidazolidin-1-yl)pyridin-3-yl)-3-(4-hydroxypiperidin-1-yl)propyl)-7-fluoro-7-isopropyl-5,6,7,8-tetrahydrothiazolo[5,4-b]quinoline-2-carboxamide] | 384 nM |
| CC(C)(C)[C@H]1CCc2nc3sc(C(=O)N[C@H](CCN4CCCC(C(=O)O)C4)c4ccc(-c5ccc(=O)[nH]c5)cc4)cc3cc2C1 (mixture of isomers) [Example 56, 1-[rac-(3R)-3-[4-(6-oxo-1H-pyridin-3-yl)phenyl]-3-[[rac-(6S)-6-tert-butyl-5,6,7,8-tetrahydrothieno[2,3-b]quinoline-2-carbonyl]amino]propyl]piper idin-1-ium-3-carboxylic acid;formate] | 811 nM |
| CC(C)(C)[C@H]1CCc2nc3sc(C(=O)N[C@H](CCN4CCC(O)CC4)c4ccc(-c5ncc(O)cc5F)cc4)nc3cc2C1 (racemic) [Example 181, rac-(7S)-7-tert-butyl-N-[rac-(1R)-1-[4-(3-fluoro-5-hydroxy-2-pyridyl)phenyl]-3-(4-hydroxypiperidin-1-ium-1-yl)propyl]-5,6,7,8-tetrahydrothiazolo[5,4-b]quinoline-2-carboxamide; 2,2,2-trifluoroacetate] | 1440 nM |
| CC(C)(C)[C@H]1CCc2nc3sc(C(=O)N[C@H](CCN4CCC[C@@H]4CO)c4ccccc4)cc3cc2C1 [Example 262, (6S)-6-tert-butyl-N-{(1R)-3-[(2R)-2-(hydroxymethyl)pyrrolidin-1-yl]-1-phenylpropyl}-5,6,7,8-tetrahydrothieno[2,3-b]quinoline-2-carboxamide] | 6320 nM |
| CC(C)(C)[C@H]1CCc2nc3sc(C(=O)N[C@H](CCN4CCC(O)CC4)c4ccc(-c5ccc(=O)[nH]c5)cc4)nc3cc2C1 (racemic) [Example 79, rac-(7S)-7-tert-butyl-N-[rac-(1R)-3-(4-hydroxypiperidin-1-ium-1-yl)-1-[4-(6-oxo-1H-pyridin-3-yl)phenyl]propyl]-5,6,7,8-tetrahydrothiazolo[5,4-b]quinoline-2-carboxamide; formate] | 270 nM |
| CC(C)(C)[C@H]1CCc2nc3sc(C(=O)N[C@H](CCN4CC[C@H](C(=O)O)[C@@H](F)C4)c4ccc(-c5cnc(O)c(F)c5)cc4)nc3cc2C1 (racemic) [Example 203, rac-(3R,4R)-3-fluoro-1-[rac-(3R)-3-[4-(5-fluoro-6-hydroxy-3-pyridyl)phenyl]-3-[[rac-(7S)-7-tert-butyl-5,6,7,8-tetrahydrothiazolo[5,4-b]quinoline-2-carbonyl]amino]propyl]piperidin-1-ium-4-carboxylic acid; formate] | 1190 nM |

Now from value to compound:

| EC50 | Structure (SMILES) |
| --- | --- |
| 830 nM | CC(C)(C)[C@H]1CCc2nc3sc(C(=O)N[C@H](CCN4CCC(O)CC4)c4cccc(C(=O)N5CC(O)C5)c4)nc3cc2C1 (racemic) [Example 156, rac-(7S)-7-tert-butyl-N-[rac-(1R)-1-[3-(3-hydroxyazetidine-1-carbonyl)phenyl]-3-(4-hydroxy-1-piperidyl)propyl]-5,6,7,8-tetrahydrothiazolo[5,4-b]quinoline-2-carboxamide] |
| 764 nM | CN(C)S(=O)(=O)Nc1ccc([C@@H](CCN2CC[C@@H](O)C2)NC(=O)c2nc3cc4c(nc3s2)CC[C@H](C(C)(C)C)C4)cn1 (racemic) [Example 211, rac-(7S)-7-tert-butyl-N-[rac-(1R)-1-[6-(dimethylsulfamoylamino)-3-pyridyl]-3-[rac-(3R)-3-hydroxypyrrolidin-1-ium-1-yl]propyl]-5,6,7,8-tetrahydrothiazolo[5,4-b]quinoline-2-carboxamide; 2,2,2-trifluoroacetate] |
| 96.7 nM | CC(C)(C)[C@H]1CCc2nc3sc(C(=O)N[C@H](CCN4CCC(O)CC4)c4cccc(C(=O)N5CC6(CCCNC6)C5)c4)nc3cc2C1 (racemic) [Example 131, rac-(7S)-7-tert-butyl-N-[rac-(1R)-1-[3-(2,8-diazaspiro[3.5]nonane-2-carbonyl)phenyl]-3-(4-hydroxy-1-piperidyl)propyl]-5,6,7,8-tetrahydrothiazolo[5,4-b]quinoline-2-carboxamide] |
| 276 nM | CC(C)(C)[C@H]1CCc2nc3sc(C(=O)N[C@H](CCN4CCC(O)CC4)c4cccc(C(=O)NC5CCCNC5)c4)nc3cc2C1 (mixture of isomers) [Example 143, rac-(7S)-7-tert-butyl-N-[rac-(1R)-3-(4-hydroxy-1-piperidyl)-1-[3-(3-piperidylcarbamoyl)phenyl]propyl]-5,6,7,8-tetrahydrothiazolo[5,4-b]quinoline-2-carboxamide] |
| 629 nM | COC1CCN(CC[C@@H](NC(=O)c2nc3cc4c(nc3s2)CC[C@H](C(C)(C)C)C4)c2cccc(C(=O)NC3CN(C)C3)c2)CC1 (racemic) [Example 109, rac-(7S)-7-tert-butyl-N-[rac-(1R)-3-(4-methoxy-1-piperidyl)-1-[3-[(1-methylazetidin-1-ium-3-yl)carbamoyl]phenyl]propyl]-5,6,7,8-tetrahydrothiazolo[5,4-b] quinoline-2-carboxamide; 2,2,2-trifluoroacetate] |
| 716 nM | CC(C)(C)[C@H]1CCc2nc3sc(C(=O)N[C@H](CCN4CCC(O)CC4)c4cccc(C(=O)N5CC(O)(C(F)(F)F)C5)c4)nc3cc2C1 (racemic) [Example 153, rac-(7S)-7-tert-butyl-N-[rac-(1R)-3-(4-hydroxy-1-piperidyl)-1-[3-[3-hydroxy-3-(trifluoromethyl)azetidine-1-carbonyl]phenyl]propyl]-5,6,7,8-tetrahydrothiazolo[5,4-b]quinoline-2-carboxamide] |
